Patent US8394929B2, “Nogo receptor-mediated blockade of axonal growth” (Yale University, priority 2000, dated 2013)

What was measured:
[1] = tested on: CNS myelin induced growth cone collapse; assay: Blockade of CNS myelin induced growth cone collapse in chick DRG cultures; type: cell-based
Procedure: In the growth cone collapse assay, the response to Nogo was measured in the presence of various potential antagonistic peptides. […] This blockade supports the hypothesis that Nogo is a primary inhibitory component of CNS myelin.
To determine the antagonistic activity of Peptide 140 against CNS myelin, the above synthetic peptide was added approximately 10 min before application of CNS myelin. 30 min later, cultures were fixed and growth cone collapse was assessed following staining with rhodamine-phalloidin. For neurite outgrowth assays, plastic chamber slide were coated with 100 μg ml^−1 poly-L-lysine, washed, and dried. 3 μl drops of PBS containing CNS myelin were spotted and dried. Slides were then rinsed and coated with 10 μg ml fs24^−1 laminin before addition of dissociated E12 chick DRGs. Peptide 140, or the scrambled version of Peptide 140, was added at the time of cell plating. Cultures were grown for 5-7 h after which neurite outgrowth was assessed.

[2] = tested on: mNgR deletion mutants; assay: AP-hNogo-A (1055-1120) binding to COS-7 cells transfected with other mNgR deletion mutants; design: species or system mouse
Excerpt: The NgΔRNT construct encodes residues 58 to 473 of mNgR. The NgRANT construct was made by using the primers ΔLRR-NT5 (5′-[…]-3′) and NgR3X (5′-[…]-3′) to amplify a sequence from the wtNgR-pSecTag2Hygro plasmid. The amplified sequence was ligated into the XhoI/BamHI of pSecTag2.
The NgLRR-construct encodes residues 306 to 473 of mNgR. The NgLRR construct was made by using the primers, MycNgR305 (5′-[…]-3′) and NgR3X (above) to amplify a sequence from the from the wtNgR-pSecTag2Hygro plasmid. The amplified sequence was ligated into the XhoI/BamHI of pSecTag2.
The mNgR LLR deletions and NgRΔLRRCT deletion mutants were generated using ExSite™ PCR-based site-directed mutagenesis kit (Stratagene, La Jolla, Calif.). Generally, the primers described below were used to amplify a sequence from the wtNgR pSecTag2 plasmid. The ends of the amplified products were ligated together. The resulting constructs were transfected into COS-7 cells.
The NgRΔ1-2 construct encodes residues 1 to 56 and residues 106 to 473 of mNgR. The primers used for making the NgRΔ1-2 construct were DEL LRR (5′PO4) (5′-[…]-3′) and DEL LRR2 (5′-[…]-3′). […]
To determine whether mNgR or mNgR deletion mutants bound to hNogo-A (1055-1120), wtNgR or mNgR deletion mutants were transfected into COS-7 cells. […] AP-fusion protein was detected as previously described for AP-Sema3A (Takahashi et al., Nature Neurosci. 1:487-493, 1998).

Molecule: Peptide 140: synthetic peptide of amino acids #1055-1094 of the human NogoA protein, acetylated and amidated at the termini (Ac-RIYKGVIQAIQKSDEGHPFRAYLESEVAISEELVQKYSNS-NH2; UniProt Q9NQC3 1055-1094, looked up, fragment)
- blockade of CNS myelin induced growth cone collapse (in words) ([1]; high doses / higher concentrations of CNS myelin): had no effect on inhibitory activity
- blockade of CNS myelin induced growth cone collapse (in words) ([1]; low dose / lowest concentrations of CNS myelin): reduces myelin induced growth cone collapse to control levels

B1: AP-Nogo: fusion protein of His6 tag, placental alkaline phosphatase (AP) and the 66 amino acid active domain of Nogo (protein)
chain: HHHHHHIIPVEEENPDFWNREAAEALGAAKKLQPAQTAAKNLIIFLGDGMGVSTVTAARILKGQKKDKLGPEIPLAMDRFPYVALSKTYNVDKHVPDSGATATAYLCGVKGNFQTIGLSAAARFNQCNTTRGNEVISVMNRAKKAGKSVGVVTTTRVQHASPAGTYAHTVNRNWYSDADVPASARQEGCQDIATQLISNMDIDVILGGGRKYMFRMGTPDPEYPDDYSQGGTRLDGKNLVQEWLAKRQGARYVWNRTELMQASLDPSVTHLMGLFEPGDMKYEIHRDSTLDPSLMEMTEAALRLLSRNPRGFFLFVEGGRIDHGHHESRAYRALTETIMFDDAIERAGQLTSEEDTLSLVTADHSHVFSFGGYPLRGSSIFGLAPGKARDRKAYTVLLYGNGPGYVLKDGARPDVTESESGSPEYRQQSAVPLDEETHAGEDVAVFARGPQAHLVHGVQEQTFIAHVMAFAACLEPYTACDLAPPAGTTDAAHPGRIYKGVIQAIQKSDEGHPFRAYLESEVAISEELVQKYSNSALGHVNCTIKELRRLFLVDDLVDSLK
- binding (in words) [2]: did not
